# Key:
# Format in all cases: in vivo
# cotton (COTT) = experiment: Multi-crop greenhouse test, COUNTER 15G and safener PPI, herbicide POE (Examples 62-64; Tables 61-63); parameters: dose or concentration left out as unconfirmed; details: Gossypium hirsutum, Table 62, Biocide No. 1 8.96 Kg/Ha, antidote 4.48 Kg/Ha PPI where in label
# Method: (§1) Tests according to this invention in various crops indicate widespread application of the invention. In Examples 62-66 below are described tests with a variety of herbicides contacted with COUNTER® 15G in the presence and absence of MON-7400 (Antidote No. 12); MON-13900 (No. 1); MON-4660 (No. 16) and flurazole (No. 16). Those tests were conducted according to Procedures IV or V described above and illustrated further in other foregoing examples. Plants used in all tests were, for crops (as abbreviated in parentheses); cotton (COTT); soybean (SOBE); CORN, grain sorghum (GRSO); wheat (WHEA) and RICE, and the weeds giant foxtail (GIFT) and velvetleaf (VELE). The data in the tables below represent averages of two replications.
# (§2) In this test the crops and weeds were planted 1.3 cm deep in 13.7 cm X 27.7 cm pans containing Dupo silt loam soil. The test safeners were applied in acetone solution and COUNTER 15G as dry granules to soil cover layers and incorporated by shaking in a bag. Treated cover layers were placed on seeded pans which were transferred to greenhouse benches and subirrigated. Herbicide was applied POE six (6) days after PPI initiation and observations of plant injury made ten (10) days later; results are shown in Table 61. The herbicide used in this example was BEACON (No. 8).
# (§3) The test procedure described in Example 62 was repeated using ACCENT® (Herbicide No. 7) as the herbicide; the biocide and safeners were the same.
# Corn = experiment: Multi-crop greenhouse test, herbicide POE (Examples 62-64; Tables 61-63); parameters: inhibition: dose or concentration left out as unconfirmed; details: Zea mays, Table 62, Biocide No. 1 8.96 Kg/Ha, antidote 4.48 Kg/Ha PPI where in label
# Method: as §1, §2, §3
# Giant foxtail (GIFT) = experiment: as above; parameters: dose or concentration left out as unconfirmed; details: Setaria faberi, Table 62, Biocide No. 1 8.96 Kg/Ha, antidote 4.48 Kg/Ha PPI where in label
# Method: as §1, §2, §3
# RICE = experiment: as above; parameters: dose or concentration left out as unconfirmed; details: Oryza sativa, Table 62, Biocide No. 1 8.96 Kg/Ha, antidote 4.48 Kg/Ha PPI where in label
# Method: as §1, §2, §3
# Velvetleaf (VELE) = experiment: as above; parameters: dose or concentration left out as unconfirmed; details: Abutilon theophrasti, Table 62, Biocide No. 1 8.96 Kg/Ha, antidote 4.48 Kg/Ha PPI where in label
# Method: as §1, §2, §3
# grain sorghum (GRSO) = experiment: as above; parameters: dose or concentration left out as unconfirmed; details: Biocide No. 1 8.96 Kg/Ha, antidote 4.48 Kg/Ha PPI where in label
# Method: as §1, §2, §3
# soybean (SOBE) = experiment: as above; parameters: dose or concentration left out as unconfirmed; details: Glycine max, Table 62, Biocide No. 1 8.96 Kg/Ha, antidote 4.48 Kg/Ha PPI where in label
# Method: as §1, §2, §3
# wheat (WHEA) = experiment: as above; parameters: dose or concentration left out as unconfirmed; details: Triticum aestivum, Table 62, Biocide No. 1 8.96 Kg/Ha, antidote 4.48 Kg/Ha PPI where in label
# Method: as §1, §2, §3
# [1] = Herb. No. 7 (ACCENT) 0.0044 Kg/Ha POE
# [2] = Herb. No. 7 (ACCENT) 0.035 Kg/Ha POE
# [3] = Herb. No. 7 (ACCENT) 0.28 Kg/Ha POE
smiles,measurement,setting,value
COc1cc(OC)nc(NC(=O)NS(=O)(=O)c2ncccc2C(=O)N(C)C)n1 [Herb. No. 7],inhibition,cotton (COTT); [1],25%
same,inhibition,cotton (COTT); [2],40%
same,inhibition,cotton (COTT); [3],50%
same,inhibition,Corn; [1],0%
same,inhibition,Corn; [2],0%
same,inhibition,Corn; [3],0%
same,inhibition,Giant foxtail (GIFT); [1],65%
same,inhibition,Giant foxtail (GIFT); [2],70%
same,inhibition,Giant foxtail (GIFT); [3],75%
same,inhibition,RICE; [1],20%
same,inhibition,RICE; [2],40%
same,inhibition,RICE; [3],50%
same,inhibition,Velvetleaf (VELE); [1],40%
same,inhibition,Velvetleaf (VELE); [2],60%
same,inhibition,Velvetleaf (VELE); [3],65%
same,inhibition,"grain sorghum (GRSO); Table 62, Herb. No. 7 (ACCENT) 0.0044 Kg/Ha POE",60%
same,inhibition,"grain sorghum (GRSO); Table 62, Herb. No. 7 (ACCENT) 0.035 Kg/Ha POE",65%
same,inhibition,"grain sorghum (GRSO); Table 62, Herb. No. 7 (ACCENT) 0.28 Kg/Ha POE",75%
same,inhibition,soybean (SOBE); [1],10%
same,inhibition,soybean (SOBE); [2],20%
same,inhibition,soybean (SOBE); [3],40%
same,inhibition,wheat (WHEA); [1],35%
same,inhibition,wheat (WHEA); [2],45%
same,inhibition,wheat (WHEA); [3],60%
